Experimental data taken from patent publication US7816410B2, “Pesticidal compositions” (priority 2003, dated 2010).

Columns and labels:
Assay type in all cases: in vivo
Conditions in all cases: 15 gai/hL
[1] = tested on: glasshouse whitefly (Trialeurodes vaporariorum); test: Whitefly ovicide protectant test
Protocol: (§1) The aim of this study was to determine the efficacy of the compositions of the invention on separate life stages of the glasshouse whitefly (Trialeurodes vaporariorum). Three studies were undertaken, the first to determine the efficacy of the composition of the invention as an ovicide in both protectant and curative treatments. The following composition (Composition B) was prepared: All treatments were applied to tobacco plants (var. Tobacco nicotiana) using a hand-held atomiser (CEME-984), applied to both surfaces of the leaf, to incipient run-off. The composition was applied at 5000, 1000, 200, 100 and 50 mL product/hL, Imidacloprid (reference item) was applied at 15 gai/hL and controls were sprayed with deionised water only. Three replicate plants were sprayed for each treatment. The treated plants were maintained in a controlled environment room at 22.9-34.4° C., with lighting on a 16 h light/8 h dark cycle. Light intensity was recorded as 870-1464 lux. Relative humidity was recorded as being between 25.1-85.2%. For the ovicide test, plants were treated (both infested and uninfested with eggs). For the curative test, leaf discs were taken and egg numbers counted. For the protectant test, treated plants were infested after treatment then leaf discs taken with known numbers of eggs. […]

[2] = tested on: glasshouse whitefly (Trialeurodes vaporariorum); test: Whitefly ovicide curative test
Protocol: as §1

[3] = tested on: glasshouse whitefly (Trialeurodes vaporariorum); test: Whitefly nymph curative test
Source text: The aim of this study was to determine the efficacy of the compositions of the invention on separate life stages of the glasshouse whitefly (Trialeurodes vaporariorum).
A second test was to determine the efficacy of composition B as a curative treatment against whitefly nymphs and the third test was to determine the effects of the composition as a (repellent) protectant spray against whitefly adults.
All treatments were applied to tobacco plants (var. Tobacco nicotiana) using a hand-held atomiser (CEME-984), applied to both surfaces of the leaf, to incipient run-off. The composition was applied at 5000, 1000, 200, 100 and 50 mL product/hL, Imidacloprid (reference item) was applied at 15 gai/hL and controls were sprayed with deionised water only.
Three replicate plants were sprayed for each treatment. The treated plants were maintained in a controlled environment room at 22.9-34.4° C., with lighting on a 16 h light/8 h dark cycle. Light intensity was recorded as 870-1464 lux. Relative humidity was recorded as being between 25.1-85.2%.
For the curative nymph test, leaves with nymphs 7-12 days old were treated and assessments of mortality made at 4, 7 and 10 days after application.

[4] = tested on: glasshouse whitefly (Trialeurodes vaporariorum); test: Whitefly adult repellence (protectant) test
Source text: The aim of this study was to determine the efficacy of the compositions of the invention on separate life stages of the glasshouse whitefly (Trialeurodes vaporariorum). A second test was to determine the efficacy of composition B as a curative treatment against whitefly nymphs and the third test was to determine the effects of the composition as a (repellent) protectant spray against whitefly adults. All treatments were applied to tobacco plants (var. Tobacco nicotiana) using a hand-held atomiser (CEME-984), applied to both surfaces of the leaf, to incipient run-off. The composition was applied at 5000, 1000, 200, 100 and 50 mL product/hL, Imidacloprid (reference item) was applied at 15 gai/hL and controls were sprayed with deionised water only. Three replicate plants were sprayed for each treatment. The treated plants were maintained in a controlled environment room at 22.9-34.4° C., with lighting on a 16 h light/8 h dark cycle. Light intensity was recorded as 870-1464 lux. Relative humidity was recorded as being between 25.1-85.2%. The adult protectant test, assessed the numbers of alive adults on treated leaves after immersion in an adult whitefly infested chamber, 15 and 18 days after application.

O=[N+]([O-])NC1=NCCN1Cc1ccc(Cl)nc1 [Imidacloprid]
percentage whitefly egg hatch ([1]; 1 DAA): 0.0%
percentage whitefly egg hatch ([1]; 3 DAA): 0.0%
percentage whitefly egg hatch ([1]; 7 DAA): 0.0%
percentage whitefly egg hatch ([2]; 1 DAA): 0.0%
percentage whitefly egg hatch ([2]; 3 DAA): 75.2%
percentage whitefly egg hatch ([2]; 7 DAA): 91.4%
percentage whitefly nymph mortality ([3]; 4 DAA): 100.0%
percentage whitefly nymph mortality ([3]; 7 DAA): 100.0%
percentage whitefly nymph mortality ([3]; 10 DAA): 100.0%
number of adult whitefly per leaf ([4]; 15 DAA): 0
number of adult whitefly per leaf ([4]; 18 DAA): 0
